Test system: VEEV Trinidad donkey, virus titer reduction
Experiment: log virus titer change, VEEV Trinidad donkey strain, secondary screen at 10 µM (AID 602411)
Settings: stronger effect = lower value

| Structure (SMILES) | log virus titer change |
| --- | --- |
| CCN1CCN(Cc2nc3ccc([N+](=O)[O-])cc3c(=O)n2-c2ccccc2F)CC1 | < -5.5 |
| CN1CCN(Cc2nc3ccc([N+](=O)[O-])cc3c(=O)n2-c2ccccc2F)CC1 | < -5.2 |

From PubChem BioAssay AID602411 (Southern Research Specialized Biocontainment Screening …, 2012)
